The results in this text go back to US20250197406A1, “INDAZOLES AS HEMATOPOIETIC PROGENITOR KINASE 1 (HPK1) INHIBITORS AND METHODS FOR USING SAME” (1ST Biotherapeutics, Inc., priority 2022, published 2025).

SMILES strings stand for the structures.

The target in the assay is recombinant human HPK1 (Homo sapiens (Human), UniProt Q92918). Kind of assay: HPK1 kinase assay (Promega ADP-Glo kinase assay). Format: biochemical. The conditions noted are these: In vitro activity against HPK1, 5 ng HPK1, MBP substrate, ATP 25 μM, 30° C. 40 minutes. In short, it runs like this:
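IC50 was derived from percent inhibition across a range of compound concentrations. Recombinant human HPK1 (5 ng) phosphorylated MBP for 40 min at 30 °C in Tris buffer pH 7.5 with 20 mM MgCl2, with ATP added as a 25 µM solution and 0.5% DMSO. ADP formed was read by ADP-Glo luminescence.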

Sequence of recombinant human HPK1 (Q92918 whole entry): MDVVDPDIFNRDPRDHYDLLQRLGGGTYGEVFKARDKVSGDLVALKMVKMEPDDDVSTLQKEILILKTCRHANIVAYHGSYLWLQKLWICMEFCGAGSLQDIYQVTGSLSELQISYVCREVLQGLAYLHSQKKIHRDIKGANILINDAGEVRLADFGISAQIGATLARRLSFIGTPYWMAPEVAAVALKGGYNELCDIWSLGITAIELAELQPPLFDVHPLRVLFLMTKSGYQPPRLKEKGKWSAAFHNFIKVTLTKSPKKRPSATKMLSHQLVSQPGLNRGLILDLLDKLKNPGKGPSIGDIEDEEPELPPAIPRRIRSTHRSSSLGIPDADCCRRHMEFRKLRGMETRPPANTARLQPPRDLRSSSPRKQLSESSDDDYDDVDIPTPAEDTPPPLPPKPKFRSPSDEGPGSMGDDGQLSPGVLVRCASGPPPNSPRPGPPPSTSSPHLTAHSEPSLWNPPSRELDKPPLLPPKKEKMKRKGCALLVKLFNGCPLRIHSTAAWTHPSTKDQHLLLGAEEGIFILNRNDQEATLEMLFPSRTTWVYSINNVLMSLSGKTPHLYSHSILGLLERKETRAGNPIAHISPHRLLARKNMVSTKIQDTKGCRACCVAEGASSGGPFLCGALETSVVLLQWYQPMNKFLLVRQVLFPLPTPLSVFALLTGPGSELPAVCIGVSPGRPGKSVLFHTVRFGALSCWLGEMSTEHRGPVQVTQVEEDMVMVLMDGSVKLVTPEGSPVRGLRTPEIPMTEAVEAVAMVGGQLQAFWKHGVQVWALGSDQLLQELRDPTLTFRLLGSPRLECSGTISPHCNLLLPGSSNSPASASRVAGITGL

For the compound `CC(C)Nc1c(F)c(Cl)c(-c2cn3cc(NC(=O)[C@@H]4C[C@@H]4C(F)F)nc3cn2)c2cn[nH]c12` [Example 88, (1R,2S)-N-(6-(5-chloro-6-fluoro-7-(isopropylamino)-1H-indazol-4-yl)imidazo[1,2-a]pyrazin-2-yl)-2-(difluoromethyl)cyclopropane-1-carboxamide], the IC50 was below 100 nM.

With `CC(C)(C)[S+]([O-])NC(c1c(F)c(C(F)(F)F)c(-c2cn3cc(NC(=O)[C@@H]4C[C@@H]4F)nc3cn2)c2cn[nH]c12)C1CC1` (stereo partly drawn) [Example 97, (1S,2S)-N-(6-(7-(((tert-butylsulfinyl)amino)(cyclopropyl)methyl)-6-fluoro-5-(trifluoromethyl)-1H-indazol-4-yl)imidazo[1,2-a]pyrazin-2-yl)-2-fluorocyclopropane-1-carboxamide], the 50% inhibitory concentration (IC50) was below 100 nM.

With `C[C@H](NC(=O)C(F)(F)F)c1c(F)c(Cl)c(-c2cn3cc(NC(=O)[C@@H]4C[C@@H]4F)nc3cn2)c2cn[nH]c12` [Example 146, (1S,2S)-N-(6-(5-chloro-6-fluoro-7-((S)-1-(2,2,2-trifluoroacetamido)ethyl)-1H-indazol-4-yl)imidazo[1,2-a]pyrazin-2-yl)-2-fluorocyclopropane-1-carboxamide], the 50% inhibitory concentration (IC50) was below 100 nM.

Turning to `Cc1c(F)c(C(C2CC2)N2C(=O)c3ccccc3C2=O)c2[nH]ncc2c1-c1cn2cc(NC(=O)[C@@H]3C[C@@H]3F)nc2cn1` (stereo partly drawn) [Example 21, (1S,2S)-N-(6-(7-(cyclopropyl(1,3-dioxoisoindolin-2-yl)methyl)-6-fluoro-5-methyl-1H-indazol-4-yl)imidazo[1,2-a]pyrazin-2-yl)-2-fluorocyclopropane-1-carboxamid], the IC50 is below 100 nM.

As for `Cc1c(F)c(C(C)C(F)F)c2[nH]ncc2c1-c1cn2cc(NC(=O)[C@@H]3C[C@@H]3F)nc2cn1` (stereo partly drawn) [Example 5, (1S,2S)-N-(6-(7-(1,1-difluoropropan-2-yl)-6-fluoro-5-methyl-1H-indazol-4-yl)imidazo[1,2-a]pyrazin-2-yl)-2-fluorocyclopropane-1-carboxamide], the half-inhibitory concentration (IC50) is below 100 nM.

Regarding `CNC(=O)Nc1cn2cc(-c3c(Cl)c(F)c(NC(C)C)c4[nH]ncc34)ncc2n1` [Example 121, 1-(6-(5-chloro-6-fluoro-7-(isopropylamino)-1H-indazol-4-yl)imidazo[1,2-a]pyrazin-2-yl)-3-methylurea], the IC50 lay within 501 to 1000 nM.

Take `CC(NC(=O)C1CC1)c1c(F)c(C(F)F)c(-c2cn3cc(NC(=O)[C@@H]4C[C@@H]4F)nc3cn2)c2cn[nH]c12` (stereo partly drawn) [Example 76, (1S,2S)-N-(6-(7-(1-(cyclopropanecarboxamido)ethyl)-5-(difluoromethyl)-6-fluoro-1H-indazol-4-yl)imidazo[1,2-a]pyrazin-2-yl)-2-fluorocyclopropane-1-carboxamide]: the IC50 is below 100 nM.

Take `CC(C)Nc1c(F)c(Cl)c(-c2cn3cc(NC(=O)CN)nc3cn2)c2cn[nH]c12` [Example 80, 2-amino-N-(6-(5-chloro-6-fluoro-7-(isopropylamino)-1H-indazol-4-yl)imidazo[1,2-a]pyrazin-2-yl)acetamide]: the 50% inhibitory concentration (IC50) is below 100 nM.

As for `CC(C)Nc1c(F)c(Cl)c(-c2cn3cc(NC(=O)C4CCN4)nc3cn2)c2cn[nH]c12` (stereo not shown) [Example 108, N-(6-(5-chloro-6-fluoro-7-(isopropylamino)-1H-indazol-4-yl)imidazo[1,2-a]pyrazin-2-yl)azetidine-2-carboxamide], the IC50 lay in the range of 101 to 500 nM.

`COC(=O)c1c(F)c(NC(C)C)c2[nH]ncc2c1-c1cn2cc(NC(=O)[C@@H]3C[C@@H]3F)nc2cn1` [Example 59, methyl 6-fluoro-4-(2-((1S,2S)-2-fluorocyclopropane-1-carboxamido)imidazo[1,2-a]pyrazin-6-yl)-7-(isopropylamino)-1H-indazole-5-carboxylate]: the IC50 is below 100 nM.

On to `N#Cc1c(F)cc2[nH]ncc2c1-c1cn2cc(NC(=O)[C@@H]3C[C@@H]3F)nc2cn1` [Example 72, (1S,2S)-N-(6-(5-cyano-6-fluoro-1H-indazol-4-yl)imidazo[1,2-a]pyrazin-2-yl)-2-fluorocyclopropane-1-carboxamide], for which the 50% inhibitory concentration (IC50) fell in the range of 501 to 1000 nM.

`O=C(Nc1cn2cc(-c3c(C(F)F)c(F)c(C(C4CC4)N4C(=O)c5ccccc5C4=O)c4[nH]ncc34)ncc2n1)[C@@H]1C[C@@H]1F` (stereo partly drawn) [Example 48, (1S,2S)-N-(6-(7-(cyclopropyl(1,3-dioxoisoindolin-2-yl)methyl)-5-(difluoromethyl)-6-fluoro-1H-indazol-4-yl)imidazo[1,2-a]pyrazin-2-yl)-2-fluorocyclopropane-1-carboxamide]: the IC50 was below 100 nM.

As for `CN(C)c1c(F)c(C(F)F)c(-c2cn3cc(NC(=O)[C@@H]4C[C@@H]4F)nc3cn2)c2cn[nH]c12` [Example 17, (1S,2S)-N-(6-(5-(difluoromethyl)-7-(dimethylamino)-6-fluoro-1H-indazol-4-yl)imidazo[1,2-a]pyrazin-2-yl)-2-fluorocyclopropane-1-carboxamide], the concentration for half-maximal inhibition (IC50) was below 100 nM.

For `CC(=O)Nc1cn2cc(-c3c(Cl)c(F)c(C(C)N4CCC(O)C4)c4[nH]ncc34)ncc2n1` (stereo not shown) [Example 163, N-(6-(5-chloro-6-fluoro-7-(1-(3-hydroxypyrrolidin-1-yl)ethyl)-1H-indazol-4-yl)imidazo[1,2-a]pyrazin-2-yl)acetamide], the half-inhibitory concentration (IC50) was in the range of 501 to 1000 nM.

In the case of `CCCC(=O)Nc1cn2cc(-c3c(Cl)c(F)c(NC(C)C)c4[nH]ncc34)ncc2n1` [Example 110, N-(6-(5-chloro-6-fluoro-7-(isopropylamino)-1H-indazol-4-yl)imidazo[1,2-a]pyrazin-2-yl)butyramide], the IC50 was below 100 nM.

In the case of `Cc1c(F)c(C(C)CN2C(=O)c3ccccc3C2=O)c2[nH]ncc2c1-c1cn2cc(NC(=O)[C@@H]3C[C@@H]3F)nc2cn1` (stereo partly drawn) [Example 22, (1S,2S)-N-(6-(7-(1-(1,3-dioxoisoindolin-2-yl)propan-2-yl)-6-fluoro-5-methyl-1H-indazol-4-yl)imidazo[1,2-a]pyrazin-2-yl)-2-fluorocyclopropane-1-carboxamide], the 50% inhibitory concentration (IC50) is below 100 nM.

As to `CC(=O)Nc1cn2cc(-c3c(Cl)c(F)c(OC4CN(C(=O)CO)C4)c4[nH]ncc34)ncc2n1` [Example 148, N-(6-(5-chloro-6-fluoro-7-((1-(2-hydroxyacetyl)azetidin-3-yl)oxy)-1H-indazol-4-yl)imidazo[1,2-a]pyrazin-2-yl)acetamide], the IC50 fell in the range of 501 to 1000 nM.

In the case of `CC(C)Nc1c(F)c(Cl)c(-c2cn3cc(NC(=O)[C@@H]4C[C@@H]4CF)nc3cn2)c2cn[nH]c12` [Example 94, (1R,2S)-N-(6-(5-chloro-6-fluoro-7-(isopropylamino)-1H-indazol-4-yl)imidazo[1,2-a]pyrazin-2-yl)-2-(fluoromethyl)cyclopropane-1-carboxamide], the IC50 was below 100 nM.

For `Cc1c(F)c(C(NC(=O)C2CC2)C2CC2)c2[nH]ncc2c1-c1cn2cc(NC(=O)[C@@H]3C[C@@H]3F)nc2cn1` (stereo partly drawn) [Example 67, (1S,2S)-N-(6-(7-(cyclopropanecarboxamido(cyclopropyl)methyl)-6-fluoro-5-methyl-1H-indazol-4-yl)imidazo[1,2-a]pyrazin-2-yl)-2-fluorocyclopropane-1-carboxamide], the IC50 was below 100 nM.

For the compound `O=C(Nc1cn2cc(-c3c(C(F)(F)F)c(F)c(C(O)C4CC4)c4[nH]ncc34)ncc2n1)[C@@H]1C[C@@H]1CO` (stereo partly drawn) [Example 118, (1R,2S)-N-(6-(7-(cyclopropyl(hydroxy)methyl)-6-fluoro-5-(trifluoromethyl)-1H-indazol-4-yl)imidazo[1,2-a]pyrazin-2-yl)-2-(hydroxymethyl)cyclopropane-1-carboxamide], the IC50 is below 100 nM.

As for `CC(=O)NC(c1c(F)c(C(F)F)c(-c2cn3cc(NC(=O)[C@@H]4C[C@@H]4F)nc3cn2)c2cn[nH]c12)C1CC1` (stereo partly drawn) [Example 54, (1S,2S)-N-(6-(7-(acetamido(cyclopropyl)methyl)-5-(difluoromethyl)-6-fluoro-1H-indazol-4-yl)imidazo[1,2-a]pyrazin-2-yl)-2-fluorocyclopropane-1-carboxamide], the IC50 was below 100 nM.

Take `CC(=O)Nc1cn2cc(-c3c(Cl)c(F)c(CN4CCC(O)C4)c4[nH]ncc34)ncc2n1` (stereo not shown) [Example 151, N-(6-(5-chloro-6-fluoro-7-((3-hydroxypyrrolidin-1-yl)methyl)-1H-indazol-4-yl)imidazo[1,2-a]pyrazin-2-yl)acetamide]: the IC50 lay in the range of 501 to 1000 nM.

Take `COCC(C)c1c(F)c(C)c(-c2cn3cc(NC(=O)[C@@H]4C[C@@H]4F)nc3cn2)c2cn[nH]c12` (stereo partly drawn) [Example 4, (1S,2S)-2-fluoro-N-(6-(6-fluoro-7-(1-methoxypropan-2-yl)-5-methyl-1H-indazol-4-yl)imidazo[1,2-a]pyrazin-2-yl)cyclopropane-1-carboxamide]: the IC50 was below 100 nM.

Take `CC(C)Nc1c(F)c(Cl)c(-c2cn3cc(NC(=O)C4COC4)nc3cn2)c2cn[nH]c12` [Example 131, N-(6-(5-chloro-6-fluoro-7-(isopropylamino)-1H-indazol-4-yl)imidazo[1,2-a]pyrazin-2-yl)oxetane-3-carboxamide]: the 50% inhibitory concentration (IC50) was below 100 nM.

As to `CC(C)Nc1c(F)c(Cl)c(-c2cn3cc(NC(=O)OC(C)C)nc3cn2)c2cn[nH]c12` [Example 95, isopropyl (6-(5-chloro-6-fluoro-7-(isopropylamino)-1H-indazol-4-yl)imidazo[1,2-a]pyrazin-2-yl)carbamate], the half-maximal inhibitory concentration (IC50) is below 100 nM.

On to `CC(C)Nc1c(F)c(Cl)c(-c2cn3cc(NC4CCOC4)nc3cn2)c2cn[nH]c12` (stereo not shown) [Example 101, 6-(5-chloro-6-fluoro-7-(isopropylamino)-1H-indazol-4-yl)-N-(tetrahydrofuran-3-yl)imidazo[1,2-a]pyrazin-2-amine], for which the concentration for half-maximal inhibition (IC50) fell in the range of 101 to 500 nM.

For `Cc1c(F)c(NC(C)C)c2[nH]ncc2c1-c1cn2cc(NC(=O)[C@H]3C[C@H]3F)nc2cn1` [Example 33], the IC50 was below 100 nM.

For `Cc1c(F)c(NC(C)C)c2[nH]ncc2c1-c1cn2cc(NC(=O)Cc3cccnc3)nc2cn1` [Example 93, N-(6-(6-fluoro-7-(isopropylamino)-5-methyl-1H-indazol-4-yl)imidazo[1,2-a]pyrazin-2-yl)-2-(pyridin-3-yl)acetamide], the IC50 was below 100 nM.
